Experiments:
[1] = Formation of 1,5-cz-[M(Lig)] from Lig and M^III ions (metal dependent click-zip) (Charts 4, 5); assay type: physicochemical; settings: MOPS/NaOH buffer pH 7.0, TD728, TD827 in 50% i-PrOH; for conversion to 1,5-cz-[M(Lig)], Y^III: TD714 sum of two diastereoisomers
[2] = Formation of 1,5-cz-[Ln(Lig)] from Lig and Ln^III ions (metal dependent click-zip), MOPS/NaOH buffer pH 7.0, analytical HPLC (Charts 1, 2); settings: MOPS/NaOH buffer pH 7.0

Structure (SMILES) | conversion to 1,5-cz-[M(Lig)], Sc^III ([1]; 1 week at 80° C.) | conversion to 1,5-cz-[M(Lig)], Y^III ([1]; 1 week at 80° C.) | conversion to 1,5-cz-[M(Lig)], Sc^III ([1]; 1 hour at 80° C.) | conversion to 1,5-cz-[M(Lig)], Y^III ([1]; 1 hour at 80° C.) | conversion to 1,5-cz-[Ln(Lig)], Ce^III ([2]; after 1 hour at 80° C.) | conversion to 1,5-cz-[Ln(Lig)], Dy^III ([2]; after 1 week at 80° C.) | conversion to 1,5-cz-[Ln(Lig)], Dy^III ([2]; after 1 hour at 80° C.) | conversion to 1,5-cz-[Ln(Lig)], Er^III ([2]; after 1 week at 80° C.) | conversion to 1,5-cz-[Ln(Lig)], Er^III ([2]; after 1 hour at 80° C.) | conversion to 1,5-cz-[Ln(Lig)], Eu^III ([2]; after 1 week at 80° C.) | conversion to 1,5-cz-[Ln(Lig)], Eu^III ([2]; after 1 hour at 80° C.) | conversion to 1,5-cz-[Ln(Lig)], Gd^III ([2]; after 1 week at 80° C.) | conversion to 1,5-cz-[Ln(Lig)], Gd^III ([2]; after 1 hour at 80° C.) | conversion to 1,5-cz-[Ln(Lig)], Ho^III ([2]; after 1 week at 80° C.) | conversion to 1,5-cz-[Ln(Lig)], Ho^III ([2]; after 1 hour at 80° C.) | conversion to 1,5-cz-[Ln(Lig)], La^III ([2]; after 1 hour at 80° C.) | conversion to 1,5-cz-[Ln(Lig)], Lu^III ([2]; after 1 week at 80° C.) | conversion to 1,5-cz-[Ln(Lig)], Lu^III ([2]; after 1 hour at 80° C.) | conversion to 1,5-cz-[Ln(Lig)], Nd^III ([2]; after 1 hour at 80° C.) | conversion to 1,5-cz-[Ln(Lig)], Pr^III ([2]; after 1 hour at 80° C.) | further results
C#Cc1cccc(CN2CCN(CC(=O)O)CCN(Cc3cc(N(C)C)cc(CN=[N+]=[N-])n3)CCN(CC(=O)O)CC2)n1 [TD1176] | 31% | 95% | 6% | 30% | 0% | 96% | 20% | 96% | 46% | 93% | 6% | 91% | 7% | 96% | 31% | 0% | 96% | 85% | 2% | 1% | conversion to 1,5-cz-[Ln(Lig)], Ce^III ([2]; after 1 week at 80° C.): 60%; conversion to 1,5-cz-[Ln(Lig)], La^III ([2]; after 1 week at 80° C.): 73%; conversion to 1,5-cz-[Ln(Lig)], Nd^III ([2]; after 1 week at 80° C.): 85%; conversion to 1,5-cz-[Ln(Lig)], Pr^III ([2]; after 1 week at 80° C.): 82%; conversion to 1,5-cz-[Ln(Lig)], Sm^III ([2]; after 1 week at 80° C.): 92%; conversion to 1,5-cz-[Ln(Lig)], Sm^III ([2]; after 1 hour at 80° C.): 5%; conversion to 1,5-cz-[Ln(Lig)], Tb^III ([2]; after 1 week at 80° C.): 94%; conversion to 1,5-cz-[Ln(Lig)], Tb^III ([2]; after 1 hour at 80° C.): 14%; conversion to 1,5-cz-[Ln(Lig)], Tm^III ([2]; after 1 week at 80° C.): 96%; conversion to 1,5-cz-[Ln(Lig)], Tm^III ([2]; after 1 hour at 80° C.): 63%; conversion to 1,5-cz-[Ln(Lig)], Yb^III ([2]; after 1 week at 80° C.): 97%; conversion to 1,5-cz-[Ln(Lig)], Yb^III ([2]; after 1 hour at 80° C.): 75%
C#CCN(CC#C)CCN1CCN(CC(=O)O)CCN(Cc2cc(-c3ccccc3)cc(CN=[N+]=[N-])n2)CCN(CC(=O)O)CC1 [TD669] | 0% | 12% | 0% | 0% | 0% | 20% | 0% | 12% | 0% | 25% | 0% | 24% | 0% | 14% | 0% | 0% | 7% | 0% | 0% | 0% | conversion to 1,5-cz-[Ln(Lig)], Sm^III ([2]; after 1 week at 80° C.): 33%; conversion to 1,5-cz-[Ln(Lig)], Sm^III ([2]; after 1 hour at 80° C.): 0%; conversion to 1,5-cz-[Ln(Lig)], Tb^III ([2]; after 1 hour at 80° C.): 0%; conversion to 1,5-cz-[Ln(Lig)], Tm^III ([2]; after 1 week at 80° C.): 11%; conversion to 1,5-cz-[Ln(Lig)], Tm^III ([2]; after 1 hour at 80° C.): 0%; conversion to 1,5-cz-[Ln(Lig)], Yb^III ([2]; after 1 week at 80° C.): 10%; conversion to 1,5-cz-[Ln(Lig)], Yb^III ([2]; after 1 hour at 80° C.): 0%

More lines, main results first:

conversion to 1,5-cz-[M(Lig)], Sc^III ([1]; 1 week at 80° C.) | conversion to 1,5-cz-[M(Lig)], Y^III ([1]; 1 week at 80° C.) | conversion to 1,5-cz-[M(Lig)], Sc^III ([1]; 1 hour at 80° C.) | conversion to 1,5-cz-[M(Lig)], Y^III ([1]; 1 hour at 80° C.) | conversion to 1,5-cz-[Ln(Lig)], Ce^III ([2]; after 1 hour at 80° C.) | conversion to 1,5-cz-[Ln(Lig)], Dy^III ([2]; after 1 week at 80° C.) | conversion to 1,5-cz-[Ln(Lig)], Dy^III ([2]; after 1 hour at 80° C.) | conversion to 1,5-cz-[Ln(Lig)], Er^III ([2]; after 1 week at 80° C.) | conversion to 1,5-cz-[Ln(Lig)], Er^III ([2]; after 1 hour at 80° C.) | conversion to 1,5-cz-[Ln(Lig)], Eu^III ([2]; after 1 week at 80° C.) | conversion to 1,5-cz-[Ln(Lig)], Eu^III ([2]; after 1 hour at 80° C.) | conversion to 1,5-cz-[Ln(Lig)], Gd^III ([2]; after 1 week at 80° C.) | conversion to 1,5-cz-[Ln(Lig)], Gd^III ([2]; after 1 hour at 80° C.) | conversion to 1,5-cz-[Ln(Lig)], Ho^III ([2]; after 1 week at 80° C.) | conversion to 1,5-cz-[Ln(Lig)], Ho^III ([2]; after 1 hour at 80° C.) | conversion to 1,5-cz-[Ln(Lig)], La^III ([2]; after 1 hour at 80° C.) | conversion to 1,5-cz-[Ln(Lig)], Lu^III ([2]; after 1 week at 80° C.) | conversion to 1,5-cz-[Ln(Lig)], Lu^III ([2]; after 1 hour at 80° C.) | conversion to 1,5-cz-[Ln(Lig)], Nd^III ([2]; after 1 hour at 80° C.) | conversion to 1,5-cz-[Ln(Lig)], Pr^III ([2]; after 1 hour at 80° C.) | Structure (SMILES) | further results
61% | 80% | 4% | 16% | 0% | 70% | 10% | 88% | 26% | 28% | 3% | 33% | 3% | 79% | 16% | 0% | 98% | 63% | 1% | 0% | CC(C)(N)C#Cc1cccc(CN2CCN(CC(=O)O)CCN(Cc3cc(-c4ccccc4)cc(CN=[N+]=[N-])n3)CCN(CC(=O)O)CC2)n1 [TD1054] | conversion to 1,5-cz-[Ln(Lig)], Ce^III ([2]; after 1 week at 80° C.): 4%; conversion to 1,5-cz-[Ln(Lig)], La^III ([2]; after 1 week at 80° C.): 4%; conversion to 1,5-cz-[Ln(Lig)], Nd^III ([2]; after 1 week at 80° C.): 11%; conversion to 1,5-cz-[Ln(Lig)], Pr^III ([2]; after 1 week at 80° C.): 10%; conversion to 1,5-cz-[Ln(Lig)], Sm^III ([2]; after 1 week at 80° C.): 22%; conversion to 1,5-cz-[Ln(Lig)], Sm^III ([2]; after 1 hour at 80° C.): 2%; conversion to 1,5-cz-[Ln(Lig)], Tb^III ([2]; after 1 week at 80° C.): 55%; conversion to 1,5-cz-[Ln(Lig)], Tb^III ([2]; after 1 hour at 80° C.): 6%; conversion to 1,5-cz-[Ln(Lig)], Tm^III ([2]; after 1 week at 80° C.): 94%; conversion to 1,5-cz-[Ln(Lig)], Tm^III ([2]; after 1 hour at 80° C.): 39%; conversion to 1,5-cz-[Ln(Lig)], Yb^III ([2]; after 1 week at 80° C.): 97%; conversion to 1,5-cz-[Ln(Lig)], Yb^III ([2]; after 1 hour at 80° C.): 53%
16% | 22% | 0% | 3% | 0% | 17% | 2% | 39% | 6% | 5% | 1% | 5% | 1% | 23% | 4% | 0% | 83% | 18% | 0% | 0% | [N-]=[N+]=NCc1cccc(CN2CCN(CC(=O)O)CCN(Cc3cccc(C#CI)n3)CCN(CC(=O)O)CC2)n1 [TD1204] | conversion to 1,5-cz-[Ln(Lig)], Ce^III ([2]; after 1 week at 80° C.): 0%; conversion to 1,5-cz-[Ln(Lig)], La^III ([2]; after 1 week at 80° C.): 0%; conversion to 1,5-cz-[Ln(Lig)], Nd^III ([2]; after 1 week at 80° C.): 1%; conversion to 1,5-cz-[Ln(Lig)], Pr^III ([2]; after 1 week at 80° C.): 0%; conversion to 1,5-cz-[Ln(Lig)], Sm^III ([2]; after 1 week at 80° C.): 4%; conversion to 1,5-cz-[Ln(Lig)], Sm^III ([2]; after 1 hour at 80° C.): 1%; conversion to 1,5-cz-[Ln(Lig)], Tb^III ([2]; after 1 week at 80° C.): 10%; conversion to 1,5-cz-[Ln(Lig)], Tb^III ([2]; after 1 hour at 80° C.): 2%; conversion to 1,5-cz-[Ln(Lig)], Tm^III ([2]; after 1 week at 80° C.): 62%; conversion to 1,5-cz-[Ln(Lig)], Tm^III ([2]; after 1 hour at 80° C.): 11%; conversion to 1,5-cz-[Ln(Lig)], Yb^III ([2]; after 1 week at 80° C.): 76%; conversion to 1,5-cz-[Ln(Lig)], Yb^III ([2]; after 1 hour at 80° C.): 15%
52% | 94% | 7% | 22% | 1% | 93% | 15% | 94% | 34% | 89% | 4% | 91% | 5% | 94% | 22% | 1% | 94% | 66% | 1% | 1% | C#Cc1cccc(CN2CCN(CC(=O)O)CCN(Cc3cc(-c4ccc(C(=O)O)cc4)cc(CN=[N+]=[N-])n3)CCN(CC(=O)O)CC2)n1 [TD742] | conversion to 1,5-cz-[Ln(Lig)], Ce^III ([2]; after 1 week at 80° C.): 43%; conversion to 1,5-cz-[Ln(Lig)], La^III ([2]; after 1 week at 80° C.): 40%; conversion to 1,5-cz-[Ln(Lig)], Nd^III ([2]; after 1 week at 80° C.): 76%; conversion to 1,5-cz-[Ln(Lig)], Pr^III ([2]; after 1 week at 80° C.): 66%; conversion to 1,5-cz-[Ln(Lig)], Sm^III ([2]; after 1 week at 80° C.): 87%; conversion to 1,5-cz-[Ln(Lig)], Sm^III ([2]; after 1 hour at 80° C.): 3%; conversion to 1,5-cz-[Ln(Lig)], Tb^III ([2]; after 1 week at 80° C.): 93%; conversion to 1,5-cz-[Ln(Lig)], Tb^III ([2]; after 1 hour at 80° C.): 9%; conversion to 1,5-cz-[Ln(Lig)], Tm^III ([2]; after 1 week at 80° C.): 94%; conversion to 1,5-cz-[Ln(Lig)], Tm^III ([2]; after 1 hour at 80° C.): 48%; conversion to 1,5-cz-[Ln(Lig)], Yb^III ([2]; after 1 week at 80° C.): 93%; conversion to 1,5-cz-[Ln(Lig)], Yb^III ([2]; after 1 hour at 80° C.): 55%

Source: patent US20250147039A1, “Compounds for complexation of rare earth elements and/or s-, p-, d- block metals, their coordination compounds, peptide conjugates, method of their preparation and use thereof” (USTAV ORGANICKE CHEMIE A BIOCHEMIE AV CR V.V.I., priority 2021, published 2025)
